Measurements taken from ChEMBL document CHEMBL5029153, “Structural Insights into Notum Covalent Inhibition” (J Med Chem, 2021).

What was measured:
[1] = target: T1, Palmitoleoyl-protein carboxylesterase NOTUM (Homo sapiens, UniProt Q6P988); experiment: Binding affinity to glycosylated Notum 1 (unknown origin) assessed as change in melting temperature at 30 uM by SYPRO orange dye based thermal shift assay
T1 sequence (Q6P988 whole entry): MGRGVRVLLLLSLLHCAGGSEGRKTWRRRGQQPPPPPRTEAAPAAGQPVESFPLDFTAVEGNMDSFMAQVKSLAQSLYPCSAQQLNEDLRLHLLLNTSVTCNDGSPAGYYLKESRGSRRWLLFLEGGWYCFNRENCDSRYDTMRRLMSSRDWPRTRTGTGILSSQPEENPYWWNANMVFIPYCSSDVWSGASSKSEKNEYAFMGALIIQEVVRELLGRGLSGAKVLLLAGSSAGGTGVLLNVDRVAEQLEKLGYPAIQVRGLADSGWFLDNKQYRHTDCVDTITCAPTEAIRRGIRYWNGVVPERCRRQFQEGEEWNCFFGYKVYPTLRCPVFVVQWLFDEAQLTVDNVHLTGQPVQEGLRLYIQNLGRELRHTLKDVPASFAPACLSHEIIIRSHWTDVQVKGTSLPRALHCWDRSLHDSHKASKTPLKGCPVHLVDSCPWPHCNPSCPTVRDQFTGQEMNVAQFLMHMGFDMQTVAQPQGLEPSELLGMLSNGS

[2] = target: T1, Palmitoleoyl-protein carboxylesterase NOTUM; experiment: Binding affinity to glycosylated Notum 1 (unknown origin) assessed as maximum change in melting temperature at 1 mM by SYPRO orange dye based thermal shift assay; conditions: 1000 µM
[3] = target: T1, Palmitoleoyl-protein carboxylesterase NOTUM; experiment: Binding affinity to glycosylated Notum 1 (unknown origin) assessed as change in melting temperature at 8 uM by SYPRO orange dye based thermal shift assay
[4] = target: T1, Palmitoleoyl-protein carboxylesterase NOTUM; experiment: Inhibition of Notum 1 (unknown origin) expressed in HEK293 cells harbouring TCF/LEF luciferase reporter gene assessed as modulation of Wnt/beta-catenin signalling pathway preincubated with recombinant Wnt-3A for 1 hr followed by addition to reporter cell plate incubated overnight by luminescence based microplate reader analysis

| deltaTm [1] [°C] | deltaTm [2] [°C] | deltaTm [3] [°C] | EC50 [4] [nM] | Compound |
| --- | --- | --- | --- | --- |
| 1 | 2.5 | – | – | O=C(O)CCC(=O)N1CCc2ccccc21 |
| 5 | 10 | 2 | – | COC(=O)CCC(=O)N1CCc2ccccc21 |
| – | – | – | 300 | O=C(CCC(=O)N1CCc2ccccc21)OCC(F)F |
